Results taken from patent US10383873B2, “Method and kits for identifying of CDK9 inhibitors for the treatment of cancer” (Memorial Sloan-Kettering Cancer Center, priority 2014, dated 2019).

Experiments:
[1] = test system: human HCC cell lines; experiment: Cell cycle analysis (BrdU/7-AAD staining) after 48 hours of treatment; assay type: cell-based; settings: PHA-767491 treatment
Procedure: (FIG. 3E) Representative flow cytometry plots showing cell cycle analysis (BrdU+7-AAD+ double staining) of cells after 48 hours of PHA-767491 treatment.

[2] = test system: MYC-overexpressing Alexander cells; experiment: Proliferation assay in Alexander cells with enforced MYC expression; assay type: cell-based, human; settings: ectopic MYC expression versus empty vector
[3] = test system: Ser2 of RNA pol II; experiment: Immunoblot of Pol II Ser2 phosphorylation in tumors; assay type: in vivo, mice
From the text: Mice were maintained under specific pathogen-free conditions, and food and water were provided ad libitum. […] One million murine or human HCC cells were ortothopically transplantated into female nude recipient mice (NCR nu/nu, purchased from Charles River laboratories and Harlan Laboratories), as described previously (Saborowski et al. 2013 Proc Natl Acad Sci USA. 2013 Nov. 26; 110(48):19513-8. doi: 10.1073/pnas.1311707110.). […] For PHA-767491 treatment trials, PHA-767491 was solved in ultrapure distilled water, filtered by 0.2 M filters, and diluted to a final concentration of 5 mg/ml. Mice were orally given twice daily PHA-767491 (50 mg/kg) or a similar volume of vehicle (water). The sick animals were sacrificed and liver tumors were used for further analysis. Liver tumors were excised, formalin-fixed and paraffin-embedded, frozen, or embedded in OCT.
Liver tissues and cell pellets were lysed in Laemmli buffer or protein lysis buffer (200 mM NaCl, 0.2% NP40, 50 mM Tris at pH 7.5, 1% Tween20, protease and phosphatases inhibitors) using a tissue homogenizer. Equal amounts of protein were separated on 12% SDS-polyacrylamide gels and transferred to PVDF membranes. […] Images were analyzed using the AlphaView software (ProteinSimple). Detection in immunoblots was performed using antibodies for CDK9 (Santa Cruz Biotechnology), MCM6 (Santa Cruz Biotechnology), PSMB2 (Santa Cruz Biotechnology), β-Actin (AC-15, Sigma), p53 (Leica Biosystems), MYC (Abcam), CCNT1 (Santa Cruz Biotechnology), phopho-Ser2 RNA Pol II (Cell Signaling), and RNA Pol II (Santa Cruz Biotechnology).

[4] = test system: human and murine cell lines; experiment: Comparison of inhibitor IC50 with anti-proliferative effects of CDK9 shRNAs; assay type: cell-based; settings: IC50 compared with competitive proliferation assays
From the text: (FIG. 3A) Scatter plot illustrating the correlation between anti-proliferative effects of CDK9 shRNAs and the IC50 of PHA-767491 in six human cell lines. The correlation and p values of three additional CDK9 inhibitors and one DNA replication inhibitor (aphidicolin) are also shown in the right panel. The survival is defined as the average of the survival ratio of two shRNAs in competitive proliferation assay. (FIG. 3B) Proliferation rates of PHA-767491-treated human cells, calculated by measuring the change in viable cell number after 72 h in culture and fitting data to an exponential growth curve. Results were normalized to the proliferation rate of vehicle (H2O) treated cells, set to 1. Values are mean+/−SD of three independent replicates. (FIG. 3C) Summary of PHA-767491 IC50 values of human cell lines in FIG. 3A. […]
Competitive proliferation assays using shRNAs in TRMPV-Neo vector (with miR-30 or miR-E backbone) were performed as described previously (Zuber J, et al. Nature (2011) 478: 524-528). […] Proliferation rates were calculated by dividing cell concentration at 72 h and cell concentration at 0 h, divided by 72. Relative proliferation rates were calculated by normalizing to the rate of vehicle-treated cells. Population doublings were calculated by calculating log 2 (cells at end point/cells at initial point) divided by time in days. […]

[5] = test system: HepG2 cells; experiment: Orthotopic HepG2 HCC xenograft, bioluminescent imaging and Ki67; assay type: in vivo, mice; settings: high MYC expressing HepG2; 50 mg/kg twice a day
Procedure: (§1) All mouse experiments were approved by the Memorial Sloan-Kettering Cancer Center (MSKCC) Animal Care and Use Committee (protocol no. 11-06-011). Mice were maintained under specific pathogen-free conditions, and food and water were provided ad libitum. For conditional RNAi experiments in vivo, Tet-on murine HCC MP1 cells were transduced with luciferase-hygro and TRMPV-Neo-miR-E shRNA constructs. […] For whole-body bioluminescent imaging, mice were intraperitoneally injected with 50 mg/kg D-Luciferin (Goldbio), and after 10 min, analysed using an IVIS Spectrum system (Caliper LifeSciences). Quantification was performed using Living Image software (Caliper LifeSciences) with standardized round regions of interests covering the mouse trunk and extremities. […]
(§2) Liver tissues and cell pellets were lysed in Laemmli buffer or protein lysis buffer (200 mM NaCl, 0.2% NP40, 50 mM Tris at pH 7.5, 1% Tween20, protease and phosphatases inhibitors) using a tissue homogenizer. […] The abundance of β-actin was monitored to ensure equal loading. Images were analyzed using the AlphaView software (ProteinSimple). […]

[6] = test system: human HCC cell lines; settings: previous findings; cited from earlier work
[7] = test system: Alexander cells; experiment: Orthotopic Alexander HCC xenograft, bioluminescent imaging and Ki67; assay type: in vivo, mice; settings: low MYC expressing Alexander; same treatment
Procedure: as §1, §2

[8] = molecular target: CDK9 (Homo sapiens, UniProt P50750); settings: versus other available inhibitors
[9] = test system: SNU-475 cells; experiment: Proliferation assay in SNU-475 cells with enforced MYC expression; assay type: cell-based, human; settings: MYC levels equivalent to HepG2
[10] = test system: non-transformed cell lines; experiment: Proliferation assay in non-transformed cell lines; assay type: cell-based; settings: two non-transformed cell lines, compared with cancer cell lines
Procedure: Dead cells were excluded using propidium iodide (PI) staining to score cells with sub-2N DNA content. Measurements of cell concentration were performed on a Guava Easycyte (Millipore), gating only viable cells (FSC/SSC/PI-). Proliferation rates were calculated by dividing cell concentration at 72 h and cell concentration at 0 h, divided by 72. Relative proliferation rates were calculated by normalizing to the rate of vehicle-treated cells. Population doublings were calculated by calculating log 2 (cells at end point/cells at initial point) divided by time in days.

Chain of CDK9 (P50750 whole entry, species assumed): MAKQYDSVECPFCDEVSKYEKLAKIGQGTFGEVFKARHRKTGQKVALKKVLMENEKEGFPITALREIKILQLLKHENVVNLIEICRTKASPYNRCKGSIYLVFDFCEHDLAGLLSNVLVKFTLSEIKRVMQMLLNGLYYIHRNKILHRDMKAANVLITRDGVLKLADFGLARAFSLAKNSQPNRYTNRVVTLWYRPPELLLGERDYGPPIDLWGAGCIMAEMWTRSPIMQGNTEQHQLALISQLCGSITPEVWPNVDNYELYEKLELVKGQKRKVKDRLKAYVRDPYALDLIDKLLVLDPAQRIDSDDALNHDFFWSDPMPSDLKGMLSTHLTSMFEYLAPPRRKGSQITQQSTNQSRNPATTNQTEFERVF
Chain of CDK9 (O60563 whole entry partner, species assumed): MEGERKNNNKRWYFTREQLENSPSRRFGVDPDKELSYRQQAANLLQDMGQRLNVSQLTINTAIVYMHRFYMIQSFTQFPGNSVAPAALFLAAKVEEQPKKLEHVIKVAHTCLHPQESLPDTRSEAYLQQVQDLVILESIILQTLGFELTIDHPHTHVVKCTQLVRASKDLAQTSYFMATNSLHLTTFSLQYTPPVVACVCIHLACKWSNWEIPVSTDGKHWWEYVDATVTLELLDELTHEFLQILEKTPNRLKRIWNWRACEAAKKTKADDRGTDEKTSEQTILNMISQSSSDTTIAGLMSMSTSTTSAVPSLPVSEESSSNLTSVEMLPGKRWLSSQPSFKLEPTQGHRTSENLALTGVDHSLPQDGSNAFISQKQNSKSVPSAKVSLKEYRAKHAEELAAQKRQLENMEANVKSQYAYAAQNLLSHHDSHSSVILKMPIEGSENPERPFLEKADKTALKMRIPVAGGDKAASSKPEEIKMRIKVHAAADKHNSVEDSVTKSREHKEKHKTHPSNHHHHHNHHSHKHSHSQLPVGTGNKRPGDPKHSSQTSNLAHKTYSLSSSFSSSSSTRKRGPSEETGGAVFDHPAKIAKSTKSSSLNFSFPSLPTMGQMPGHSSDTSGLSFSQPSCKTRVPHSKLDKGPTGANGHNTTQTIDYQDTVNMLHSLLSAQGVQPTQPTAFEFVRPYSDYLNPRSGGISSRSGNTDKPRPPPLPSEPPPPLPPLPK

SMILES | cell cycle effect [1] | sensitivity to CDK9 inhibition [2] | Pol II Ser2 phosphorylation in tumors ([3]; human HCC xenografts, 50 mg/kg twice a day, 50 mg/kg) | Pol II Ser2 phosphorylation in Alexander tumors ([3]; low MYC expressing Alexander xenografts) | total RNA pol II levels in tumors ([3]; two representative tumors) | similarity of activity spectrum to CDK9 shRNAs [4] | tumor growth [5] | tumor-cell proliferation [5] | p53 dependence of proliferation inhibition [6] | effect on tumor-cell proliferation and tumor growth [7] | selectivity for CDK9 [8] | sensitivity compared with HepG2 cells [9] | sensitivity to treatment [10]
O=C1NCCc2[nH]c(-c3ccncc3)cc21 [PHA-767491] | triggered cell-cycle arrest | became more sensitive | decrease in the levels of phosphorylation of Ser2 of RNA pol II | detectable decrease in Pol II Ser2 phosphorylation | mild changes in total RNA pol II levels | most closely recapitulated shRNA-mediated CDK9 inhibition | substantial inhibition of tumor growth and some tumor regressions | decreased tumor-cell proliferation | inhibits cancer cell proliferation through p53-independent mechanisms | little if any effect | more selective for CDK9 than other available inhibitors | produced a similar sensitivity | consistently less sensitive
C[C@@]1(CO)[C@H](O)CC[C@@]2(C)[C@H]1CC[C@H]1C[C@@H]3C[C@@]12CC[C@]3(O)CO [aphidicolin] | – | – | – | – | – | did not mimic the effects of CDK9 shRNAs | – | – | – | – | – | – | –
